Test results: patent US7087809B2, “Natural herbicide resistance in wheat” (Natural Genes, Inc., priority 2003, dated 2006)

What was measured:
Assay type in all cases: in vivo, Triticum aestivum
[1] = tested on: hard red spring wheat populations (W1 through W15); assay: Soaking of wheat seeds in glyphosate herbicide solution, planting in herbicide-treated growing medium, count of surviving plants; conditions: for Surviving plants after seed treatment: seed soaking and planting; for Number of Surviving Wheat Plants: approx. 5,000 seeds
Procedure: Preferably the wheat seeds are soaked in an aqueous solution of the herbicide. Commonly the herbicide is present in the solution in a concentration of approximately 1.5 to 6 percent by weight, and most preferably in a concentration of approximately 2 percent by weight. Commonly the wheat seeds are simply immersed in the liquid comprising the herbicide. The soaking of wheat seeds is conducted for a period of time that is sufficient for the herbicide to reach the embryos of the wheat seeds. […] The liquid comprising the herbicide can be simply provided at room temperature when the wheat seeds are in contact with the liquid and are undergoing such soaking.
Alternatively, such screening of the resulting wheat plants for herbicide resistance can include the presence of the herbicide in the growing medium where the resulting seeds are planted. Good results are obtained in a preferred embodiment when one gallon of a solution containing the herbicide in a concentration of approximately 1.5 to 6 percent by weight is added to each 4 gallons of soil. The presence of the herbicide in the soil helps to assure that an atypical wheat seed having a harder seed coat has not given a false indication of herbicide resistance by its survival up to the point of germination.
Some varieties have produced no surviving plants in tests to date. Some varieties have produced up to approximately 4 surviving plant per 5,000 seeds, others approximately 1 surviving plant per 5,000 seeds. The herbicide resistance of the resulting plants can be further confirmed by another contact (e.g., spraying) with the glyphosate herbicide.
Fifteen different known and publically available hard red spring wheat populations (W1 through W15) were chosen for evaluation and screening in accordance with the process of the present invention. Each of the starting materials was believed to lack herbicide resistance that is attributable to genetic engineering. Also, each population, as all other Triticum aestivium varieties, was regarded to be highly sensitive to glyphosate herbicide during previous observations.
Individual batches of each wheat population were initially immersed and were soaked in 2 percent aqueous solutions of glyphosate herbicide that were present at room temperature. The wheat seeds were provided in contact with the glyphosate herbicide for a period of 6 hours during which time the glyphosate herbicide reached the embryos of the seeds.
Each wheat seed population was labeled and next was planted in a 50/50 sandy-loam top soil/peat growing medium. The wheat seeds were present in flats containing the growing medium at a depth of approximately 2 inches. The same 2 percent by weight aqueous solutions of glyphosate herbicide were poured into each growing medium containing the wheat seeds.
The flats containing the wheat seeds next were placed in a greenhouse under ambient conditions in an effort to achieve germination. The sandy-loam top soil/peat growing medium was periodically watered in an effort to achieve near field growing conditions except for the presence of glyphosate herbicide.
Of those that did germinate some died within the first 2 days, and only 6 of the 15 wheat populations produced any plants following the soaking in the glyphosate herbicide as reported in Table I. These 6 populations were W1 to W5 and W15. Each plant was carefully preserved and tagged in order to preserve the lineage for those that survived the exposure to the glyphosate herbicide at the seed stage.

[2] = tested on: wheat plants of the 64 flats (progeny of surviving plants); assay: Spraying of progeny seedlings of surviving plants with glyphosate herbicide at the three-leaf stage in the greenhouse; conditions: 1.2 percent aqueous solution sprayed at three-leaf stage
Source text: Fifteen seeds from each head of each surviving plant were next planted in 64 individual flats in a greenhouse containing a like 50/50 sandy-loam top soil/peat growing medium. A designation system was adopted which began with the initial Wheat Population Designation (e.g., W1) next followed by the plant number (e.g., −1, −2 for W1), and finally followed by the head number (e.g., h1). The wheat plants of the 64 flats were identified as follows:
The seeds were encouraged to germinate and wheat plants emerged. At the three-leaf stage a 1.2 percent aqueous solution of glyphosate herbicide was applied to the plants by spraying. […] Remnant seeds from these 2 plants taken from heads W2-1-h10 and W2-4-h9 were planted in the greenhouse, germinated, and underwent self-pollination to increase the seeds. Plants derived from these seeds were not subjected to the glyphosate herbicide in an effort to maximize yield and to establish a germplasm base for further testing. W2-1-h10 produced six healthy plants that were designated W2-1-h10-p1-1a through -6a. The “a” designation served to specify that the generation was not treated with glyphosate herbicide. Similarly, W2-4-h9 produced 10 plants that were designated W2-4-h9-p1-1a through 10a. All plants were allowed to mature, to undergo self-pollination, and to produce seed heads. Each head was tagged to maintain a clear record of lineage. […]

[3] = tested on: wheat selections of 'WA7824'/'Zeke' pedigree; assay: Glyphosate herbicide treatment of selections grown in greenhouse flats (after field head row treatment); conditions: 1.2 percent by weight aqueous solution sprayed at three-leaf stage; for Number Killed by Glyphosate Herbicide Treatment / Number of Survivors of Glyphosate Herbicide Treatment: greenhouse flats
Source text: The wheat seedlings arising from the germination of this planting were allowed to establish and grow to the three-leaf stage. At this stage of growth glyphosate herbicide was applied to the plants at a rate of 32 oz. per Acre. Survivors of this treatment were allowed to mature, to undergo self-pollination, and the heads from each plant were tagged, removed, and placed in individual containers to ensure a record of continuous lineage from the plants used in the increase (i.e., W2-1-h10-p1-la through 6a and W2-4-h9-p1-la through 10a). Seeds from each head removed from the surviving plants that were exposed to glyphosate herbicide in the field head row plots next were planted in flats in the greenhouse for germination and seedling establishment. The seeds from each head were planted in separate flats to maintain the integrity of each line. At the three-leaf stage, the resulting seedlings were sprayed with an aqueous 1.2 percent by weight solution of glyphosate herbicide. Surviving plants were allowed to grow to maturity, to undergo self-pollination, and to produce heads and seeds. This was done to ensure that the survivors of the glyphosate herbicide treatment also remained fertile and produced viable seeds.

O=C(O)CNCP(=O)(O)O [glyphosate herbicide, N-(phosphonomethyl)glycine]
Germination of glyphosate herbicide-treated seeds ([1]; approx. 75,000 seeds of 15 populations, 2 percent aqueous glyphosate, 6 hours soak, observed 10 to 15 days): failed to germinate | Surviving plants after seed treatment ([1]; other varieties): approximately 1 surviving plant per 5,000 seeds | Number of wheat populations (of 15) that produced any plants following the soaking ([1]; populations W1 through W15, 2 percent aqueous glyphosate, 6 hours soak): 6 | Surviving plants after seed treatment ([1]; some varieties): ≤ 4 surviving plant per 5,000 seeds | Number of Surviving Wheat Plants ([1]; wheat population W1 ('ID377'/'WestBred 926'), 2 percent aqueous glyphosate, 6 hours soak, same solution in growing medium): 4 | Number of Surviving Wheat Plants ([1]; wheat population W2 ('WA7824'/'Zeke'), 2 percent aqueous glyphosate, 6 hours soak, same solution in growing medium): 5 | Number of Surviving Wheat Plants ([1]; wheat population W3 ('SLW97606'/'WestBred 926'), 2 percent aqueous glyphosate, 6 hours soak): 1 | Number of Surviving Wheat Plants ([1]; wheat population W4 ('SLW97606'/'WestBred 936'), 2 percent aqueous glyphosate, 6 hours soak): 2 | Number of Surviving Wheat Plants ([1]; wheat population W5 ('SLW97606'/'Zeke'), 2 percent aqueous glyphosate, 6 hours soak): 1 | Number of Surviving Wheat Plants ([1]; wheat population W6 ('BZ692-108b'/'Calorwa'), 2 percent aqueous glyphosate, 6 hours soak): 0 | Number of Surviving Wheat Plants ([1]; wheat population W7 ('BZ966-472w'/'Pristine'), 2 percent aqueous glyphosate, 6 hours soak): 0 | Number of Surviving Wheat Plants ([1]; wheat population W8 ('Hank'/'BZ994-484'), 2 percent aqueous glyphosate, 6 hours soak): 0 | Number of Surviving Wheat Plants ([1]; wheat population W9 ('MT9959'/'Hank'), 2 percent aqueous glyphosate, 6 hours soak): 0 | Number of Surviving Wheat Plants ([1]; wheat population W10 ('McNeal'/'Parshall'), 2 percent aqueous glyphosate, 6 hours soak): 0 | Number of Surviving Wheat Plants ([1]; wheat population W11 ('Reeder'/'Conan'), 2 percent aqueous glyphosate, 6 hours soak): 0 | Number of Surviving Wheat Plants ([1]; wheat population W12 ('WA7899'/'Jefferson'), 2 percent aqueous glyphosate, 6 hours soak): 0 | Number of Surviving Wheat Plants ([1]; wheat population W13 ('Alpowa'/'Zak'), 2 percent aqueous glyphosate, 6 hours soak): 0 | Number of Surviving Wheat Plants ([1]; wheat population W14 ('Vanna'/'Zak'), 2 percent aqueous glyphosate, 6 hours soak): 0 | Number of Surviving Wheat Plants ([1]; wheat population W15 ('Zak'/'BZ698-41'), 2 percent aqueous glyphosate, 6 hours soak): 4 | Seedlings surviving the application of glyphosate herbicide ([2]; seedlings derived from W1-2): single seedling | Seedlings surviving the application of glyphosate herbicide ([2]; seedlings derived from W2-4): single seedling | Tolerance of plants of the selections to the herbicide ([3]; all selections from field head rows): All selections generated plants that were tolerant to the herbicide | Number Killed by Glyphosate Herbicide Treatment ([3]; selection W2-1-h10-p16a-h2-h1): 0 | Number of Survivors of Glyphosate Herbicide Treatment ([3]; selection W2-1-h10-p16a-h2-h1): 10 | Number Killed by Glyphosate Herbicide Treatment ([3]; selection W2-1-h10-p16a-h2-h5): 0 | Number of Survivors of Glyphosate Herbicide Treatment ([3]; selection W2-1-h10-p16a-h2-h5): 15 | Number Killed by Glyphosate Herbicide Treatment ([3]; selection W2-4-h9-p13a-h2-h17): 0 | Number of Survivors of Glyphosate Herbicide Treatment ([3]; selection W2-4-h9-p13a-h2-h17): 3 | Number Killed by Glyphosate Herbicide Treatment ([3]; selection W2-4-h9-p13a-h2-h18): 0 | Number of Survivors of Glyphosate Herbicide Treatment ([3]; selection W2-4-h9-p13a-h2-h18): 5
